Data as given in publication PMC11581978, “Paenilamicins are context-specific translocation inhibitors of protein synthesis” (Nature Chemical Biology, 2024).

Assays:
[1] = system: ribosomes translating ErmBL mRNA; assay: Toeprinting on ErmBL mRNA with mutated second codon (Fig. 4b); assay type: biochemical, E. coli; settings: 50 µM, in duplicate
Experimental: Toeprinting reactions for Fig. 4b and Extended Data Fig. 2 were performed as described previously. Briefly, reactions were performed with 6 μl of PURExpress in vitro protein synthesis system (New England Biolabs). The reactions were carried out with different primers and templates (Supplementary Tables 2 and 3). The reactions contained 340 ng of the respective mRNA template and were supplemented with the different compounds as specified. The translation reactions were incubated for 30 min at 37 °C. The reverse transcription reaction was carried out using AMV RT and primer NV*1-Alexa 647 (5′-[…]-3′). The translation reactions were incubated with the reverse transcriptase and the primer for 20 min at 37 °C. mRNA degradation was carried out by the addition of 1 µl of 5 M NaOH. The reactions were neutralized with 0.7 µl of 25% HCl, and nucleotide removal was performed with the QIAquick Nucleotide Removal Kit (Qiagen). The samples were dried under vacuum for 2 h at 60 °C for subsequent gel electrophoresis. The 6% acrylamide gels were scanned on a Typhoon scanner (GE Healthcare).

[2] = system: eukaryotic in vitro translation; assay: Eukaryotic in vitro translation assay (Rabbit Reticulocyte Lysate System); assay type: biochemical; settings: 0.01-10 µM
Experimental: The effect of PamB2 on eukaryotic translation was determined using the Rabbit Reticulocyte Lysate System (Promega) as previously described. Briefly, 6-μl reactions, with or without PamB2 were mixed according to the manufacturer’s description and incubated for 30 min at 32 °C with shaking (600 rpm). Each reaction was stopped by adding 3 μl of cycloheximide (600 μM). All samples were diluted with 40 μl of Luciferase assays substrate (Promega) into a white 96-well chimney flat-bottom microtiter plate (Greiner). The luminescence was then measured using a Tecan Infinite M1000 plate reader. Relative values were determined by defining the luminescence value of the sample without inhibitor as 100%.

fungi = settings: cited from earlier work
Source text: In the A-site, PamB2 contacts not only with 16S rRNA nucleotides in h44, but also A1913 from H69 of the 23S rRNA, and, in contrast to the P-site, the compound makes extensive interactions with the A-site tRNA, albeit less with the mRNA codon (Fig. 2c–f). Interactions of PamB2 with the A-site tRNA revolve around nucleotides ct^6A37 and A38, which are located in the anticodon-stem loop, directly adjacent to the anticodon (34CAU36) (Fig. 2e,f). Specifically, three direct hydrogen bonds are possible with A38 (Fig. 2e). Interactions with ct^6A37 are indirect, being mediated by water W6, which is co ...

[3] = system: EF-G-dependent translocation on the ribosome; assay: Translocation assay (toeprinting, MFKAFK template); assay type: biochemical; settings: EF-G present; tRNAfMet in P-site, N-AcPhe-tRNAPhe in A-site; in duplicate
Experimental: Translocation assays were performed as previously described[22] using the MFKAFK template[45] (Supplementary Table 2). Reactions were prepared by incubating tight-coupled ribosomes (0.7 µM) with mRNA (0.5 µM) and tRNAi^Met (1 µM) for 20 min at 37 °C in the Pure System Buffer (5 mM potassium phosphate (pH 7.3), 9 mM Mg(OAc)2, 95 mM potassium glutamate, 5 mM NH4Cl, 0.5 mM CaCl2, 1 mM spermidine, 8 mM putrescine and 1 mM dithiothreitol) and for additional 10 min at 37 °C with 2 μM of N-acetyl-Phe-tRNA^Phe. At the time of N-acetyl-Phe-tRNA^Phe addition, the reactions were supplemented with PamB2 or negamycin as specified. The translocation reaction was initiated by addition of 1 µl of EF-G–GTP mixture (1.2 µM and 3.2 mM). After 5 min of incubation at 30 °C, 2 µl of reverse transcriptase and/or dNTPs mixture was added. The reactions were stopped after another 5 min at 30 °C by addition of 200 µl of the stop buffer and subsequent phenol extraction. The obtained complementary DNA was precipitated in ethanol for subsequent gel electrophoresis.

[4] = system: Escherichia coli in vitro translation; settings: E. coli in vitro translation, cited from earlier work
Source text: The accordance of structural features of paenilamicins with the translation inhibitor edeine (Extended Data Fig. 1c) led to the hypothesis that paenilamicins may also exert their antimicrobial activity by binding to the ribosome and inhibiting protein synthesis. […] The best understood context-specific translation inhibitors are those that target the large subunit, where their inhibitory action is influenced by the sequence of the nascent polypeptide chain being synthesized, for example, macrolides and ketolides[30]–[32] ...

With paenilamicin B2 [PamB2] as the substance, how does the “inhibition of first translocation, A-site codon AUG” value ([1]; ErmBL mRNA second codon AUG) read?
Its value is “clear toeprint bands”.

What about the “inhibition of first translocation, A-site codon CUG” value ([1]; ErmBL mRNA second codon CUG (tRNALeu, m1G37)) of the same substance?
The value was “appeared to be stronger than with U, it was reproducibly weaker than with A and G”.

And the “inhibition of first translocation, A-site codon GUG” value ([1]; ErmBL mRNA second codon GUG)?
Its value is “appeared to be the strongest”.

And the “inhibition of first translocation, A-site codon UUG” value ([1]; ErmBL mRNA second codon UUG)?
Its value is “little to no inhibition of the first translocation event”.

And the “inhibition of eukaryotic in vitro translation (in words)” value [2]?
Its value is “efficiently inhibits eukaryotic in vitro translation”.

And the antifungal activity (fungi)?
Its antifungal activity is “antifungal activity”.

And the “EF-G dependent translocation (toeprint shift)” value [3]?
Its value is “little to no shift in the toeprint band”.

And the “inhibition of in vitro translation / protein synthesis (in words)” value [4]?
The value was “potent inhibitor of protein synthesis”.

And the IC50 ([4]; read-out: half-inhibitory concentration (IC50))?
Its IC50 is 400 nM.
